In the supplement of paper PMC10307832:

Assays:
Experiment in all cases: relative viability (nuclei count vs DMSO), 5 days (fraction); higher = more cells survive
[1] = compound: CC(C)C[C@H](NC(=O)[C@H](CCc1ccccc1)NC(=O)CN1CCOCC1)C(=O)N[C@@H](Cc1ccccc1)C(=O)N[C@@H](CC(C)C)C(=O)[C@@]1(C)CO1 [Carfilzomib] + Cc1nc(NC(=O)N2CCC[C@H]2C(N)=O)sc1-c1ccnc(C(C)(C)C(F)(F)F)c1 [Alpelisib] (partner 2 µM)
Summary of the method: (§1)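 Lung cancer cell lines, seeded in 1536-well plates, were treated the following day by pin tool with a single drug or with five library-drug doses (not always all listed) in √10 steps on top of a fixed anchor-drug dose. Cells were fixed and nuclei stained in one step after 5 days, and nuclei were counted. Relative viability is the nuclei count for treated wells divided by that for vehicle wells, reported as medians of duplicate plates.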

[2] = compound: O=C(c1cc(Cc2n[nH]c(=O)c3ccccc23)ccc1F)N1CCN(C(=O)C2CC2)CC1 [Olaparib] + Nc1nc2[nH]cc(CCc3ccc(C(=O)N[C@@H](CCC(=O)O)C(=O)O)cc3)c2c(=O)[nH]1 [Pemetrexed] (partner 0.2 µM)
Summary of the method: as §1

[3] = compound: CC(C)C[C@H](NC(=O)[C@H](CCc1ccccc1)NC(=O)CN1CCOCC1)C(=O)N[C@@H](Cc1ccccc1)C(=O)N[C@@H](CC(C)C)C(=O)[C@@]1(C)CO1 [Carfilzomib] + Nc1nc2[nH]cc(CCc3ccc(C(=O)N[C@@H](CCC(=O)O)C(=O)O)cc3)c2c(=O)[nH]1 [Pemetrexed] (partner 0.2 µM)
Summary of the method: as §1

[4] = compound: CC(C)C[C@H](NC(=O)[C@H](CCc1ccccc1)NC(=O)CN1CCOCC1)C(=O)N[C@@H](Cc1ccccc1)C(=O)N[C@@H](CC(C)C)C(=O)[C@@]1(C)CO1 [Carfilzomib] + CCNC(=O)c1noc(-c2cc(C(C)C)c(O)cc2O)c1-c1ccc(CN2CCOCC2)cc1 [Luminespib] (partner 0.01 µM)
Summary of the method: as §1

| Cell Line | relative viability ([1]; first compound 0.001 µM) | relative viability ([1]; first compound 0.003162 µM) | relative viability ([1]; first compound 0.01 µM) | relative viability ([1]; first compound 0.03162 µM) | relative viability ([1]; first compound 0.1 µM) | relative viability ([2]; first compound 0.08 µM) | relative viability ([2]; first compound 0.253 µM) | relative viability ([2]; first compound 2.53 µM) | relative viability ([2]; first compound 8 µM) | relative viability ([3]; first compound 0.001 µM) | relative viability ([3]; first compound 0.003162 µM) | relative viability ([3]; first compound 0.01 µM) | relative viability ([3]; first compound 0.03162 µM) | relative viability ([3]; first compound 0.1 µM) | relative viability ([4]; first compound 0.001 µM) | relative viability ([4]; first compound 0.003162 µM) | relative viability ([4]; first compound 0.01 µM) | relative viability ([4]; first compound 0.03162 µM) | relative viability ([4]; first compound 0.1 µM) |
| --- | --- | --- | --- | --- | --- | --- | --- | --- | --- | --- | --- | --- | --- | --- | --- | --- | --- | --- | --- |
| HCC-827 | 0.943 | 0.948 | 0.945 | 0.934 | 0.357 | 0.27 | 0.275 | 0.253 | 0.261 | 0.252 | 0.267 | 0.277 | 0.254 | 0.155 | 0.344 | 0.635 | 0.625 | 0.721 | 0.281 |
| HOP-62 | 0.935 | 1.12 | 0.986 | 0.118 | 0.0839 | 0.353 | 0.316 | 0.337 | 0.322 | 0.404 | 0.304 | 0.417 | 0.0823 | 0.063 | 0.986 | 0.91 | 0.849 | 0.784 | 0.0941 |
| IA-LM | 0.747 | 0.821 | 0.633 | 0.151 | 0.0147 | – | – | – | – | – | – | – | – | – | – | – | – | – | – |
| LC-2-ad | 0.915 | 0.923 | 0.956 | 0.106 | 0.109 | 0.25 | 0.252 | 0.28 | 0.276 | 0.275 | 0.302 | 0.28 | 0.273 | 0.232 | 0.974 | 1.19 | 1.12 | 0.593 | 0.265 |
| LCLC-97TM1 | 0.307 | 0.258 | 0.266 | 0.101 | 0.126 | 0.209 | 0.209 | 0.2 | 0.141 | 0.164 | 0.176 | 0.173 | 0.167 | 0.0627 | 0.743 | 0.858 | 0.753 | 0.27 | 0.14 |
| LCLC-103H | 0.972 | 1.01 | 0.99 | 0.671 | 0.195 | 0.421 | 0.499 | 0.493 | 0.426 | 0.483 | 0.459 | 0.529 | 0.446 | 0.404 | 0.849 | 0.975 | 0.943 | 1.04 | 0.176 |
| LK-2 | – | 1.59 | 1.1 | 0.263 | 0.255 | 0.298 | 0.304 | 0.257 | 0.327 | 0.304 | 0.295 | 0.273 | 0.0987 | 0.0939 | 0.221 | 0.203 | 0.175 | 0.17 | 0.168 |
| LOU-NH91 | 0.702 | 0.742 | 0.662 | 0.307 | 0.267 | 0.389 | 0.366 | 0.381 | 0.343 | 0.368 | 0.451 | 0.471 | 0.314 | 0.335 | 0.344 | 0.475 | 0.344 | 0.287 | 0.289 |
| LU99A | 0.503 | 0.543 | 0.49 | 0.198 | 0.148 | 0.187 | 0.212 | 0.161 | 0.148 | 0.191 | 0.163 | 0.18 | 0.214 | 0.188 | 0.252 | 0.221 | 0.284 | 0.218 | 0.191 |
